Counter-ions that a name gives are not always drawn.
Each compound was assayed against IRAK4 (Homo sapiens (Human), UniProt Q9NWZ3) (assay: IRAK4 Kinase Assay (IMAP fluorescence polarization)). Settings: 0.5 nM GST tagged IRAK4, 100 μM ATP, 30 minutes at 25° C., IMAP FP.
Format: biochemical
In short: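 GST-tagged IRAK4 (0.5 nM) phosphorylated 100 nM fluorescent peptide RP7030 with 100 μM ATP in 10 mM Tris-HCl pH 7.2, MgCl2, DTT and Tween 20 for 30 min at 25 °C. Phosphorylation was read as the increase in fluorescence polarization after binding to IMAP nanoparticles.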

Sequence of IRAK4 (Q9NWZ3 whole entry): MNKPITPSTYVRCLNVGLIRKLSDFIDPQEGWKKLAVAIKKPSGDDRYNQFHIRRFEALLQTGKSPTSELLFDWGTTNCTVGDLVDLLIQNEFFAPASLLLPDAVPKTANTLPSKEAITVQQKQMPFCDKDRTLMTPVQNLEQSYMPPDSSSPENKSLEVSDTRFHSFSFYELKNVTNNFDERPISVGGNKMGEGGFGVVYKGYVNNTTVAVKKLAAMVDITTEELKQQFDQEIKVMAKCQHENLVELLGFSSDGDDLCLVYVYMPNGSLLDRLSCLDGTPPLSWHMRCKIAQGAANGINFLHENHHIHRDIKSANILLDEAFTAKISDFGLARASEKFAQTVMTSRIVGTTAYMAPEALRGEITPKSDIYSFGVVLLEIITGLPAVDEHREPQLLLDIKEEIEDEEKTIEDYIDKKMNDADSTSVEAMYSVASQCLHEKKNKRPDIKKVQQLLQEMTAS

SMILES	IC50 [nM]
Cn1cc(NC(=O)c2ccc3ccc(N4CCCNCC4)nn23)c(Br)n1 [Example 21, N-(3-bromo-1-methyl-1H-pyrazol-4-yl)-2-(1,4-diazepan-1-yl)pyrrolo[1,2-b]pyridazine-7-carboxamide trifluoroacetate]	32
O=C(Nc1ccsc1Br)c1ccc2ccc(N3CCCNCC3)nn12 [Example 76, N-(2-bromothiophen-3-yl)-2-(1,4-diazepan-1-yl)pyrrolo[1,2-b]pyridazine-7-carboxamide trifluoroacetate]	1320
O=C(Nc1ccccc1Cl)c1ccc2ccc(N3CCCNCC3)nn12 [Example 59, N-(2-chlorophenyl)-2-(1,4-diazepan-1-yl)pyrrolo[1,2-b]pyridazine-7-carboxamide trifluoroacetate]	1200
Cn1cc(NC(=O)c2ccc3ccc(N4C[C@H]5CNC[C@@H]4C5)nn23)c(C(F)F)n1 (single isomer, unassigned) [Example 126, 2-[(1S,5R)- or (1R,5S)-3,6-diazabicyclo[3.2.1]oct-6-yl]-N-[3-(difluoromethyl)-1-methyl-1H-pyrazol-4-yl]pyrrolo[1,2-b]pyridazine-7-carboxamide]	14
Cn1cc(NC(=O)c2ccc3ccc(N4C[C@H]5CC[C@@H]4CN5)nn23)c(Cl)n1 (single isomer, unassigned) [Example 34, N-(3-chloro-1-methyl-1H-pyrazol-4-yl)-2-[(1S,4S)- or (1R,4R)-2,5-diazabicyclo[2.2.2]oct-2-yl]pyrrolo[1,2-b]pyridazine-7-carboxamide trifluoroacetate]	15
Cn1cc(NC(=O)c2ccc3ccc(N4CC5CCC4CN5)nn23)c(C(F)F)n1 (centres unmarked) [Example 17, 2-(2,5-diazabicyclo[2.2.2]oct-2-yl)-N-[3-(difluoromethyl)-1-methyl-1H-pyrazol-4-yl]pyrrolo[1,2-b]pyridazine-7-carboxamide trifluoroacetate]	4
N#Cc1ccccc1NC(=O)c1ccc2ccc(N3CCCNCC3)nn12 [Example 100, N-(2-Cyanophenyl)-2-(1,4-diazepan-1-yl)pyrrolo[1,2-b]pyridazine-7-carboxamide]	866
Cn1cc(NC(=O)c2ccc3ccc(N4C[C@H]5CC[C@@H]4CN5)nn23)c(Br)n1 (single isomer, unassigned) [Example 36, N-(3-bromo-1-methyl-1H-pyrazol-4-yl)-2-[(1S,4S)- or (1R,4R)-2,5-diazabicyclo[2.2.2]oct-2-yl]pyrrolo[1,2-b]pyridazine-7-carboxamide trifluoroacetate]	22
Cn1cc(NC(=O)c2ccc3ccc(N4C[C@@H]5CNC[C@H]4C5)nn23)c(C(F)F)n1 (single isomer, unassigned) [Example 125, 2-[(1S,5R)- or (1R,5S)-3,6-diazabicyclo[3.2.1]oct-6-yl]-N-[3-(difluoromethyl)-1-methyl-1H-pyrazol-4-yl]pyrrolo[1,2-b]pyridazine-7-carboxamide]	5
Cn1cc(NC(=O)c2ccc3ccc(N4CCCNCC4)nn23)c(C#N)n1 [Example 30, N-(3-cyano-1-methyl-1H-pyrazol-4-yl)-2-(1,4-diazepan-1-yl)pyrrolo[1,2-b]pyridazine-7-carboxamide trifluoroacetate]	27
O=C(Nc1ccsc1Cl)c1ccc2ccc(N[C@@H]3CCCC[C@@H]3O)nn12 [Example 91, N-(2-chlorothiophen-3-yl)-2-{[(1R,2S)-2-hydroxycyclohexyl]amino}pyrrolo[1,2-b]pyridazine-7-carboxamide]	6370
N#Cc1ccccc1NC(=O)c1ccc2ccc(N3CCC[C@@H](N)C3)nn12 [Example 107, 2-[(3R)-3-aminopiperidin-1-yl]-N-(2-cyanophenyl) pyrrolo[1,2-b]pyridazine-7-carboxamide trifluoroacetate]	26
O=C(Nc1ccccc1Br)c1ccc2ccc(N3CCCNCC3)nn12 [Example 57, N-(2-bromophenyl)-2-(1,4-diazepan-1-yl)pyrrolo[1,2-b]pyridazine-7-carboxamide trifluoroacetate]	3960
O=C(Nc1ccccc1Cl)c1ccc2ccc(N3CC4CCC3CN4)nn12 (centres unmarked) [Example 64, N-(2-chlorophenyl)-2-(2,5-diazabicyclo[2.2.2]oct-2-yl)pyrrolo[1,2-b]pyridazine-7-carboxamide trifluoroacetate]	611
Cn1cc(NC(=O)c2ccc3ccc(N[C@@H]4CCCC[C@@H]4N)nn23)c(Cl)n1 [Example 25, 2-{[(1R,2S)-2-aminocyclohexyl]amino}-N-(3-chloro-1-methyl-1H-pyrazol-4-yl)pyrrolo[1,2-b]pyridazine-7-carboxamide trifluoroacetate]	1
N#Cc1sccc1NC(=O)c1ccc2ccc(N3CCCNCC3)nn12 [Example 67, N-(2-cyanothiophen-3-yl)-2-(1,4-diazepan-1-yl)pyrrolo[1,2-b]pyridazine-7-carboxamide trifluoroacetate]	197

SMILES	IC50 [nM]
N[C@@H]1[C@H](Nc2ccc3ccc(C(=O)Nc4ccsc4Cl)n3n2)CCCC1(F)F [Example 90, 2-{[(1R,2R)-2-amino-3,3-difluoro-cyclohexyl]amino}-N-(2-chlorothiophen-3-yl)pyrrolo[1,2-b]pyridazine-7-carboxamide trifluoroacetate]	1920
Cn1cc(NC(=O)c2ccc3ccc(N4CCCNCC4)nn23)c(Cl)n1 [Example 23, N-(3-chloro-1-methyl-1H-pyrazol-4-yl)-2-(1,4-diazepan-1-yl)pyrrolo[1,2-b]pyridazine-7-carboxamide trifluoroacetate]	20
O=C(Nc1ccccc1Cl)c1ccc2ccc(N[C@@H]3CCCC[C@@H]3O)nn12 [Example 93, N-(2-chlorophenyl)-2-{[(1R,2S)-2-hydroxycyclohexyl]amino}pyrrolo[1,2-b]pyridazine-7-carboxamide trifluoroacetate]	6840
Cn1cc(NC(=O)c2ccc3ccc(N4CCNCC5(CC5)C4)nn23)c(C(F)(F)F)n1 [Example 9, 2-(5,8-diazaspiro[2.6]non-5-yl)-N-[1-methyl-3-(trifluoromethyl)-1H-pyrazol-4-yl]pyrrolo[1,2-b]pyridazine-7-carboxamide trifluoroacetate]	27
Cn1cc(NC(=O)c2ccc3ccc(N4C[C@@H]5CNC[C@H]4C5)nn23)c(C(F)(F)F)n1 [Example 122, 2-[(1S,5R)-(1R,5S)-3,6-diazabicyclo[3.2.1]oct-6-yl]-N-[1-methyl-3-(trifluoromethyl)-1H-pyrazol-4-yl]pyrrolo[1,2-b]pyridazine-7-carboxamide]	39
Cn1ncc(NC(=O)c2ccc3ccc(N[C@@H]4CCCC[C@@H]4N)nn23)c1C(F)(F)F [Example 45, 2-{[(1R,2S)-2-aminocyclohexyl]amino}-N-[1-methyl-5-(trifluoromethyl)-1H-pyrazol-4-yl]pyrrolo[1,2-b]pyridazine-7-carboxamide trifluoroacetate]	136
CC(C)(C)n1cc(NC(=O)c2ccc3ccc(N[C@@H]4CCCC[C@@H]4O)nn23)c(C(F)F)n1 [Example 54, N-[1-tert-butyl-3-(difluoromethyl)-1H-pyrazol-4-yl]-2-{[(1R,2S)-2-hydroxycyclohexyl]amino}pyrrolo[1,2-b]pyridazine-7-carboxamide trifluoroacetate]	640
N#Cc1ccccc1NC(=O)c1ccc2ccc(N[C@@H]3CCCCNC3)nn12 (single isomer, unassigned) [Example 108, 2-[(3R)- or (3S)-azepan-3-ylamino]-N-(2-cyanophenyl)pyrrolo [1,2-b]pyridazine-7-carboxamide trifluoroacetate]	89
N#Cc1ccccc1NC(=O)c1ccc2ccc(N[C@@H]3CCCC[C@@H]3N)nn12 [Example 106, 2-{[(1R,2S)-2-aminocyclohexyl]amino}-N-(2-cyanophenyl)pyrrolo [1,2-b]pyridazine-7-carboxamide trifluoroacetate]	6
Cn1cc(NC(=O)c2ccc3ccc(N4C[C@@H]5CC[C@H]4CN5)nn23)c(Br)n1 (single isomer, unassigned) [Example 35, N-(3-bromo-1-methyl-1H-pyrazol-4-yl)-2-[(1S,4S)- or (1R,4R)-2,5-diazabicyclo[2.2.2]oct-2-yl]pyrrolo[1,2-b]pyridazine-7-carboxamide trifluoroacetate]	34
Cn1cc(NC(=O)c2ccc3ccc(N4CCNCC4)nn23)c(C(F)(F)F)n1 [Example 99, N-(1-Methyl-3-(trifluoromethyl)-1H-pyrazol-4-yl)-2-(piperazin-1-yl)pyrrolo[1,2-b]pyridazine-7-carboxamide]	63
Cn1cc(NC(=O)c2ccc3ccc(N4C5CCC4CNC5)nn23)c(C(F)F)n1 [Example 119, 2-(3,8-Diazabicyclo[3.2.1]octan-8-yl)-N-(3-(difluoromethyl)-1-methyl-1H-pyrazol-4-yl)pyrrolo[1,2-b]pyridazine-7-carboxamide]	0.5
O=C(Nc1cscc1C(F)F)c1ccc2ccc(N3CC4CCC3CN4)nn12 (centres unmarked) [Example 56, 2-(2,5-diazabicyclo[2.2.2]oct-2-yl)-N-[4-(difluoromethyl)thiophen-3-yl]pyrrolo[1,2-b]pyridazine-7-carboxamide trifluoroacetate]	95
N[C@H]1CCCC[C@H]1Nc1ccc2ccc(C(=O)Nc3cscc3Br)n2n1 [Example 63, 2-{[(1R,2S)-2-aminocyclohexyl]amino}-N-(4-bromothiophen-3-yl)pyrrolo[1,2-b]pyridazine-7-carboxamide trifluoroacetate]	7
N[C@@H]1[C@H](Nc2ccc3ccc(C(=O)Nc4cscc4C(F)F)n3n2)CCCC1(F)F [Example 96, 2-{[(1R,2R)-2-amino-3,3-difluoro-cyclohexyl]amino}-N-[4-(difluoro-methyl)thiophen-3-yl]pyrrolo[1,2-b]pyridazine-7-carboxamide trifluoroacetate]	753
N#Cc1cscc1NC(=O)c1ccc2ccc(N3CCCNCC3)nn12 [Example 68, N-(4-cyanothiophen-3-yl)-2-(1,4-diazepan-1-yl)pyrrolo[1,2-b]pyridazine-7-carboxamide trifluoroacetate]	190
